The target in this assay is T1, alpha7 nicotinic acetylcholine receptor (Rattus norvegicus, UniProt Q05941).
T1 construct: expressed in transfected cells
It counts as cell-based. The note with it: agonist concentration-response 0.001 to 30 microM; rat alpha7 nAChR in GH4C1 cells; assay validation.

Consider 1 compound from patent US20100016288A1 (priority 2008, published 2010).

T1 sequence (Q05941 23-502): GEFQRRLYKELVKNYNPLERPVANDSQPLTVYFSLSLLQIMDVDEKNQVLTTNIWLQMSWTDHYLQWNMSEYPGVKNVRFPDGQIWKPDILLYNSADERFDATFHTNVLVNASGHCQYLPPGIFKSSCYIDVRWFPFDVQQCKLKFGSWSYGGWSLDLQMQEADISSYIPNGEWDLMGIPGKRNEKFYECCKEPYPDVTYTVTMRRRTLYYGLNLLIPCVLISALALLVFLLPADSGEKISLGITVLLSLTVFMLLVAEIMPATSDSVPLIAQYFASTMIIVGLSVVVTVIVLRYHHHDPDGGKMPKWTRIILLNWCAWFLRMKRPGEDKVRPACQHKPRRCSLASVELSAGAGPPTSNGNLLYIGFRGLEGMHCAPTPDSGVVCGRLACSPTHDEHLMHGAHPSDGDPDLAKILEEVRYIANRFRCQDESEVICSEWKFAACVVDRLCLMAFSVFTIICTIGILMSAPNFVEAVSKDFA
From the text: Rat GH4C1 cells were then transfected with the rat receptor, cloned and analyzed for functional alpha7 nicotinic receptor expression employing a FLIPR assay to measure changes in intracellular calcium concentrations. […] Three cell lines were then expanded and one characterised pharmacologically (see Table 2 below) prior to its subsequent use for compound screening.
The FLIPR system allows the measurements of real time Ca^2+-concentration changes in living cells using a Ca^2+ sensitive fluorescence dye (such as Fluo4). This instrument enables the screening for agonists and antagonists for alpha 7 nAChR channels stably expressed in GH4C1 cells.
GH4C1 cells stably transfected with rat-alphα7-nAChR (see above) were used. These cells are poorly adherent and therefore pretreatment of flasks and plates with poly-D-lysine was carried out. Cells are grown in 150 cm^2 T-flasks, filled with 30 ml of medium at 37° C. and 5% CO2.
EC50 and IC50 values were calculated using the IDBS XLfit4.1 software package employing a sigmoidal concentration-response (variable slope) equation:
The compounds were tested using the functional FLIPR primary screening assay employing the stable recombinant GH4C1 cell line expressing the alpha7 nAChR. Hits identified were validated further by generation of concentration-response curves.

One may read the EC50 as the concentration giving half of the maximal effect. Compound `C[N+]1(C)CCN(c2ccccc2)CC1` [DMPP] gave an EC50 of 0.98 ± 0.47 µM.
